From patent US20260108545A1, “Methods of treating fibromyalgia with compositions comprising psilocybin” (Tryp Therapeutics Inc., priority 2022, published 2026)

Assays:
[1] = cited from earlier work
[2] = test system: rat model of formalin (FML)-induced chronic pain; assay: Von Frey assay (VFA), mechanical allodynia, formalin-induced rat pain model; assay type: in vivo, Sprague Dawley rats
Text: This example describes the effects of intravenous administration of psychedelics on pain perception and diseases associated with pain, such as nociplastic pain, in an animal model of pain. A rat model of formalin (FML)-induced chronic pain was used to investigate the effect of psilocybin administration on mechanical allodynia and thermal hyperalgesia.
Chronic pain in rats was induced by injection of formalin into the hind paw. The rats subsequently were intravenously administered psilocybin, and assessed for changes in pain perception over an extended period of time. […] The pain perception was measured in the contralateral and ipsilateral paws to assess the potential benefit of psychedelics (e.g., psilocybin) in nociplastic pain disorders. […]
Adult male Sprague Dawley rats (300-350 g) were implanted with a catheter in the jugular vein for delivery of 10 mg/kg psilocybin or 0.9% saline. Mechanical allodynia was assessed using von Frey assay (VFA) and was expressed as the threshold in grams (g). Thermal hyperalgesia was measured as paw withdrawal latency in seconds (s) using the hot plate assay (HPA) (52.5° C.). After post-surgical recovery (7-10 days), baseline responses to mechanical and thermal stimuli were measured. […] Two hours after the formalin injection, paw withdrawal thresholds in response to mechanical and thermal stimuli were measured. […]
Two types of pain perception were measured. […]

[3] = cited from earlier work; remark: listed apart in the source
[4] = rats, cited from earlier work
[5] = across species tested; cited from earlier work
[6] = single oral administration of psilocybin at 0.225 mg/kg (Hasler et al.)

| Structure (SMILES) | tolerability ([1]; at the doses examined in clinical studies / healthy individuals) | rates of prolonged psychiatric symptoms of any kind following psilocybin exposure ([1]; healthy study subjects, estimated) | drug-related serious adverse events (SAEs) ([1]; oral psilocybin) | duration of statistically significant increase in withdrawal threshold ([2]; contralateral paw, after a single psilocybin administration) [weeks] | duration of decreased tactile pain ([2]; rat model of pain) | bioavailability of oral psilocybin ([3]; oral) [%] | share of total psilocin absorbed from the digestive tract ([4]; oral psilocybin (Kalberer et al.)) | time to maximum plasma levels ([4]; post-administration (Chen et al.)) | brain regions with the highest levels of psilocin [5] | time until psilocin is detectable in plasma ([3]; after administration of the parent compound (oral psilocybin)) [min] | absolute bioavailability of psilocin after oral administration of psilocybin ([3]; estimate (Hasler et al.)) | half-life of psilocin in blood ([3]; in vivo) [h] | average peak concentration of psilocin in plasma [3, 6] | time of peak plasma levels of psilocin [3, 6] [min] |
| --- | --- | --- | --- | --- | --- | --- | --- | --- | --- | --- | --- | --- | --- | --- |
| CN(C)CCc1c[nH]c2cccc(OP(=O)(O)O)c12 [psilocybin, 3-[2-(dimethylamino)ethyl]-1H-indol-4-yl]dihydrogen phosphate] | well tolerated | 0.08-0.09% | No drug-related serious adverse events (SAEs) have been reported | 3 | up to 28 days | ~50 |  |  |  |  |  |  |  |  |
| CN(C)CCc1c[nH]c2cccc(O)c12 [psilocin] |  |  |  |  |  |  | approximately 50% | approximately 90 minutes | neocortex, hippocampus, and thalamus | ≤ 20 | 52.7+/−20% | 2 to 3 | 8.2+/−2.8 ng psilocin/ml plasma | 105 ± 37 |
